The target in assay [1] is native α7 nAChR in hippocampal neurons (Rattus norvegicus, UniProt Q05941). The format is cell-based.
Assay [2] deals with T1, α7 nAChR (Rattus norvegicus, UniProt Q05941). As to the kind of experiment: biochemical.
A further assay deals with rat α4β2 nAChR (Rattus norvegicus, UniProt P09483+P12390). As to the kind of experiment: TEVC in Xenopus oocytes, selectivity on α4β2. The format is cell-based.
The target in the next assay is T2, human 5-HT3A receptor (Homo sapiens, UniProt P46098).
T2 sequence (P46098 24-478): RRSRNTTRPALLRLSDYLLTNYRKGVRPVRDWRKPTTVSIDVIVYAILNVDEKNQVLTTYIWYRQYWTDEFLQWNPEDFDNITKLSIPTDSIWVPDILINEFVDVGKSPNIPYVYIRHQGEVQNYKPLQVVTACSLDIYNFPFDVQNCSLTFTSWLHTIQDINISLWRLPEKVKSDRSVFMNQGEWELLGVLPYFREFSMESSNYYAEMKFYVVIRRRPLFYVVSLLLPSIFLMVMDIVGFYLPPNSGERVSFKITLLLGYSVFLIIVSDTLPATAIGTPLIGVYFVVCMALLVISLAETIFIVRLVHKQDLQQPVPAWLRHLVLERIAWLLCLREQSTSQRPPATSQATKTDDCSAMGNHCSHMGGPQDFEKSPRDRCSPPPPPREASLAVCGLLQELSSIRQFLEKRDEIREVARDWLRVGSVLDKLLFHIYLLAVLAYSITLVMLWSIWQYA
As to the kind of experiment: TEVC in Xenopus oocytes, selectivity on 5-HT3A. The format is cell-based.

The target of assay [3] is human α3β3γ2 GABAA receptor (Homo sapiens, UniProt P18507+P28472+P34903). As to the kind of experiment: TEVC in Xenopus oocytes, GABAA α3β3γ2. The format is cell-based.
human α3β3γ2 GABAA receptor, sequence (P34903 29-492): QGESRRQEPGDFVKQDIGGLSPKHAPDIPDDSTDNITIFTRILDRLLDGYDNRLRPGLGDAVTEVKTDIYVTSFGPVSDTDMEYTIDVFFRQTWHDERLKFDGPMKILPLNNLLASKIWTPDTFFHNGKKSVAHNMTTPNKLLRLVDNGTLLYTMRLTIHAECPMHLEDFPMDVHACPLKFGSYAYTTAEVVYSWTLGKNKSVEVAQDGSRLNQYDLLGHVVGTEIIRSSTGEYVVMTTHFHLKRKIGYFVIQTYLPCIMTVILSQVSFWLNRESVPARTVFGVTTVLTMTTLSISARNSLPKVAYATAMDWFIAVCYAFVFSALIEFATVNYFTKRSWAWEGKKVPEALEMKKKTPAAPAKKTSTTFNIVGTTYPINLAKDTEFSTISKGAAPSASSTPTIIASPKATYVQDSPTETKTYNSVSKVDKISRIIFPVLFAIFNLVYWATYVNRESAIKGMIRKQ
human α3β3γ2 GABAA receptor, sequence (P28472 26-473): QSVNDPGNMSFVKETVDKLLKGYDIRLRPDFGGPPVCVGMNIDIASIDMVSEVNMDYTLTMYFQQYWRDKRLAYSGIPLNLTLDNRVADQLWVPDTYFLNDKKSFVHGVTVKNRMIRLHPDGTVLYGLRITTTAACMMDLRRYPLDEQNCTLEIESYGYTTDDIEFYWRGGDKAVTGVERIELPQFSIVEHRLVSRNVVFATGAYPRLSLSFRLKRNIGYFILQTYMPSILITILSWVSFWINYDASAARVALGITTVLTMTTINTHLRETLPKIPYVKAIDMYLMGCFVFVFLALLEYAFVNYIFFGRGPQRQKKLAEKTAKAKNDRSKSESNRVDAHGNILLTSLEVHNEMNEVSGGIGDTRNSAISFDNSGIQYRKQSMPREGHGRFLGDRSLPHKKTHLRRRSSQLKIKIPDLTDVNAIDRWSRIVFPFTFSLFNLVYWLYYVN
human α3β3γ2 GABAA receptor, sequence (P18507 40-475): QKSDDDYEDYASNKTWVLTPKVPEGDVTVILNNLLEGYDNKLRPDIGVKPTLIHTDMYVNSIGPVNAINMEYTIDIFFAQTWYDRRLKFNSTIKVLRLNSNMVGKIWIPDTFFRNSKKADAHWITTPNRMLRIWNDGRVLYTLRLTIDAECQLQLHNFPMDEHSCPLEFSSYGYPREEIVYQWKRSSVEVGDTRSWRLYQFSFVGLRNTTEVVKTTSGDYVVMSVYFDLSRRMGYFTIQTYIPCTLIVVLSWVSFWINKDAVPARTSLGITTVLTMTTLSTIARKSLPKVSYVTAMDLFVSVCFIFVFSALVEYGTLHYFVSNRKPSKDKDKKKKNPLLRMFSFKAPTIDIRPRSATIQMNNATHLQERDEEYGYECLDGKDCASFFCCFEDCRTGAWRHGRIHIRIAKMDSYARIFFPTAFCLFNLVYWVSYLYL
Another assay concerns the target rat α3β4 nAChR (Rattus norvegicus, UniProt P04757+P12392). As to the kind of experiment: TEVC in Xenopus oocytes, selectivity on α3β4. The format is cell-based.
Assay [4] addresses T3, human α7 nAChR (Homo sapiens, UniProt P36544). As to the kind of experiment: Two-electrode voltage clamp. Format: cell-based. The note with it: for Concentration needed to reach 30% of the response of ACh: oocyte assay; for Maximal response vs 3 mmol/L ACh: peak current normalized to 3 mmol/L ACh. For orientation: In two-electrode clamp one electrode senses voltage and the other passes current.

Assay [5] has as its target human α1β3γ2 GABAA receptor (Homo sapiens, UniProt P14867+P18507+P28472). As to the kind of experiment: TEVC in Xenopus oocytes, GABAA α1β3γ2. Format: cell-based.
Assay [6] addresses human α5β3γ2 GABAA receptor (Homo sapiens, UniProt P18507+P28472+P31644). As to the kind of experiment: TEVC in Xenopus oocytes, GABAA α5β3γ2. The format is cell-based.
Assay [7] has as its target T3, human α7 nAChR. As to the kind of experiment: TEVC, inhibition. Format: cell-based.
Assay [8] deals with human α2β3γ2 GABAA receptor (Homo sapiens, UniProt P18507+P28472+P47869). As to the kind of experiment: TEVC in Xenopus oocytes, GABAA α2β3γ2. The format is cell-based.
human α2β3γ2 GABAA receptor, sequence (P47869 29-451): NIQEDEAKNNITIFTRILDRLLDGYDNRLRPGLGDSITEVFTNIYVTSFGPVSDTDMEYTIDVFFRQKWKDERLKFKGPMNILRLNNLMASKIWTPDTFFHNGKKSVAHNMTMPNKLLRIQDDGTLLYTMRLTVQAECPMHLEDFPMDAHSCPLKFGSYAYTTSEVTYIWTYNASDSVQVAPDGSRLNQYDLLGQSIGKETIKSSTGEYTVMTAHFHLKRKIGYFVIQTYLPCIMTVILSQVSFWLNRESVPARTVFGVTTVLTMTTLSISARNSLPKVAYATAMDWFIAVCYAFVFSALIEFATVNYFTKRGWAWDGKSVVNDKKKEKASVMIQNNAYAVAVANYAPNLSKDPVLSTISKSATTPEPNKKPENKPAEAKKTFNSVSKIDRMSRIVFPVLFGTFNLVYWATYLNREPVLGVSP
human α2β3γ2 GABAA receptor, sequence (P28472 26-473): as the sequence (P28472 26-473) above
human α2β3γ2 GABAA receptor, sequence (P18507 40-475): as the sequence (P18507 40-475) above
In assay [9] the target is T1, α7 nAChR. The note with it: Ki ratio vs ACh.
For assay [10], the system named is CA1 hippocampal pyramidal neurons. As to the kind of experiment: Spontaneous IPSC recordings in hippocampal brain slices. Format: cell-based, rat.
Assay [11] deals with ERK1/2 phosphorylation in PC12 cells. As to the kind of experiment: Western blot of ERK1/2 phosphorylation in PC12 cells. The format is cell-based, rat. To be noted: pre-incubation 10 min. For orientation: In western blotting, separated proteins are transferred to a membrane and probed.
The mark [12] stands for this setting: Br-IQ17B alone, up to 100 μmol/L.
Where [13] appears, read: 100 μmol/L co-applied with 1 μmol/L GABA.
The mark [14] stands for this setting: 100 μmol/L, pre-incubation 1 min.

“And” between values parts separate entries of the source, which are not always exact repeats. Equal values may be shown once. “Also recorded” adds a separate entry of the source. Bounds are passed on as bounds.

T3 sequence (P36544 23-502): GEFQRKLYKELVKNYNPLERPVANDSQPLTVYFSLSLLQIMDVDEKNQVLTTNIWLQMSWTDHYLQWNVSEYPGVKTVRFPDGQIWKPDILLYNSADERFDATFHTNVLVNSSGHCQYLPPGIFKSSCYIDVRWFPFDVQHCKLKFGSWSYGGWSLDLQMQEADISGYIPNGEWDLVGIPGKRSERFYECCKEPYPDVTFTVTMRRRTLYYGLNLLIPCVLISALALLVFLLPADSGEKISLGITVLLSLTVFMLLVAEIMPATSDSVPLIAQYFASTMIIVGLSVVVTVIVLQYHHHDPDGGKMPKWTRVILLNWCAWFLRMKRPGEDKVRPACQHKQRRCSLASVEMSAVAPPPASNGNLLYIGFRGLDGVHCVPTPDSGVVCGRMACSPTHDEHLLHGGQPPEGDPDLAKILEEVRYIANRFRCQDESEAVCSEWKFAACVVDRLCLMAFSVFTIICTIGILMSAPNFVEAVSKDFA
native α7 nAChR in hippocampal neurons, sequence (Q05941 23-502): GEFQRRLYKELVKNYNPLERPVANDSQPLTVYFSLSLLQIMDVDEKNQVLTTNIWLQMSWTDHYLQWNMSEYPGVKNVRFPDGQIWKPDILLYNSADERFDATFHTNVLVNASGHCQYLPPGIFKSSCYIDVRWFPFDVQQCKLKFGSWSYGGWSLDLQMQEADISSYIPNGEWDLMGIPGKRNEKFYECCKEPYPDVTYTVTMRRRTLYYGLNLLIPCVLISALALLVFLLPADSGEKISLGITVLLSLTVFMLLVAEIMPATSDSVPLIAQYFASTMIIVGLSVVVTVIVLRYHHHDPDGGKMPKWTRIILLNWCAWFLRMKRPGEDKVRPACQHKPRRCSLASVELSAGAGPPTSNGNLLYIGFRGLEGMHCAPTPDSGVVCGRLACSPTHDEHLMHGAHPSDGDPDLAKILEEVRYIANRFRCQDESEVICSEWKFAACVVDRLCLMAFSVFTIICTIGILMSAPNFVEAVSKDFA
rat α4β2 nAChR, sequence (P09483 31-630): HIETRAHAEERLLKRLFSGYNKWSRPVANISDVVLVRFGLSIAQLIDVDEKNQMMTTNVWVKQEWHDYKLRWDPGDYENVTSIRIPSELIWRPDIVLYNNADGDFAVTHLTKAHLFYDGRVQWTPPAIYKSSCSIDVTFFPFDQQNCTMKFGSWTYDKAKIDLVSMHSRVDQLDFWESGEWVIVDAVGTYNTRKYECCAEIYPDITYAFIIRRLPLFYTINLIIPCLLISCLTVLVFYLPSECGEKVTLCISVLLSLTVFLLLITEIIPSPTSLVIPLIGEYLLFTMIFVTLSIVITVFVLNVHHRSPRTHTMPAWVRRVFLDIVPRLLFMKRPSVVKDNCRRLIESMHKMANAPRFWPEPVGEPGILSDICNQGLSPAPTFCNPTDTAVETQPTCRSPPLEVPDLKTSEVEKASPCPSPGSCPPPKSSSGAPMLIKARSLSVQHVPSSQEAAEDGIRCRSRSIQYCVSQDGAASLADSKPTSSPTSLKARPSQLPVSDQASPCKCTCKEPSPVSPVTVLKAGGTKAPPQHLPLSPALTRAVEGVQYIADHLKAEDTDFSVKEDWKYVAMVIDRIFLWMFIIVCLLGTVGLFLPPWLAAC
rat α4β2 nAChR, sequence (P12390 25-500): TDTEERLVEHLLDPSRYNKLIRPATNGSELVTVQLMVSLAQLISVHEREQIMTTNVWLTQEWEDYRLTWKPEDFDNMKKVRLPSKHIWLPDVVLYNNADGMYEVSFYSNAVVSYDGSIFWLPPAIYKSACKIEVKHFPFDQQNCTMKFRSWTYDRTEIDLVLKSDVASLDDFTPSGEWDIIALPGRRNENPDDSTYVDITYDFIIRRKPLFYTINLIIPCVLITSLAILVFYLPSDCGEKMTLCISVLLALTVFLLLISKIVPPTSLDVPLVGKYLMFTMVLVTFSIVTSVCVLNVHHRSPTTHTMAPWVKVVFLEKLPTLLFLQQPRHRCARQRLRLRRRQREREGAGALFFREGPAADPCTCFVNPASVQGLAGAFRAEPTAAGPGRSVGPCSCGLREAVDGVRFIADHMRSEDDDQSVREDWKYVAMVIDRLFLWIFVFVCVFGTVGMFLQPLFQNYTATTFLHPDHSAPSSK
rat α3β4 nAChR, sequence (P04757 26-499): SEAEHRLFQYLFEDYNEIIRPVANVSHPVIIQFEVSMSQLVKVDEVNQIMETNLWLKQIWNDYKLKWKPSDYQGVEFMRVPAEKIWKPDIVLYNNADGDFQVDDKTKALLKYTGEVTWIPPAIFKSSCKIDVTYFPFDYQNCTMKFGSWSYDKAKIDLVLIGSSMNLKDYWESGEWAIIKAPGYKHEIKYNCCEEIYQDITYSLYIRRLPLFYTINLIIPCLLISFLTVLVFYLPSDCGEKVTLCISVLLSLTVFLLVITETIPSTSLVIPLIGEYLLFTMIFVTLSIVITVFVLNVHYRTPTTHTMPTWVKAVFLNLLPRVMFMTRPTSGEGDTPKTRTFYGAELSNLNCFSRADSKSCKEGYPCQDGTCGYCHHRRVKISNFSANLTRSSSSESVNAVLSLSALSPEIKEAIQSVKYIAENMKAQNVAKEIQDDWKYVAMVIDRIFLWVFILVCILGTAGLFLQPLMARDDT
rat α3β4 nAChR, sequence (P12392 21-495): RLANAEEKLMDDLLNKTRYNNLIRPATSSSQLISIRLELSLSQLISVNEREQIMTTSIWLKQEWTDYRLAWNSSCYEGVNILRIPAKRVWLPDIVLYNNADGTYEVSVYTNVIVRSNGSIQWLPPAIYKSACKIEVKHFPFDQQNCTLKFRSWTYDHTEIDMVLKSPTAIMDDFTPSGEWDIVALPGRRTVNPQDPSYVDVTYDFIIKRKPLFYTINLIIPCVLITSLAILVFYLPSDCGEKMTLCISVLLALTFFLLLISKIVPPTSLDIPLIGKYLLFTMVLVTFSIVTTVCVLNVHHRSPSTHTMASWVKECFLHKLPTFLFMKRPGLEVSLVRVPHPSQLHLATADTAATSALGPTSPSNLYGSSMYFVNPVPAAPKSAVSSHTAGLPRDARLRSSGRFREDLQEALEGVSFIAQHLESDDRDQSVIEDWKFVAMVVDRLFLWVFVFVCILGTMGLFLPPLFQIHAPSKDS
T1 sequence (Q05941 23-502): as the sequence (Q05941 23-502) above

In the case of `CC(=O)OCC[N+](C)(C)C` [ACh, acetylcholine], the “Current evoked in hippocampal neurons” value in assay [1] was “evoked α7 currents with fast onset and rapid decay”.

On to `O=C(N[C@H]1CN2CCC1CC2)c1cc2cccc(Br)n2c1` [Br-IQ17B, N-[(3R)-1-azabicyclo[2,2,2]oct-3-yl]-5-bromoindolizine-2-carboxamide], for which, at α7 nAChR [2], the Ki came out at 0.0149 ± 0.0032 µM. In addition, the 50% effective concentration (EC50) at rat α4β2 nAChR, on human 5-HT3A receptor and at rat α3β4 nAChR was more than 100 µM each time. The IC50 at rat α4β2 nAChR is more than 100 µM; against rat α3β4 nAChR (IC50, inhibition of ACh-evoked α3β4 current, co-applied with 300 μmol/L ACh) it was ~382 µM and 382 µM and ~381 µM; against human α7 nAChR [7], 0.0285 ± 0.0025 µM. In addition, on rat α4β2 nAChR (setting [12]), the “Agonist activity on α4β2” value was “did not induce any current; also recorded: no detectable agonist activity”. Besides, on rat α4β2 nAChR (pre-incubation 1 min or co-application with ACh), the “Effect on ACh-evoked α4β2 current” value is “no enhancement or inhibition”. Moreover, the “Maximum effect vs 3 mmol/L ACh or 10 μmol/L 5-HT” value at rat α4β2 nAChR (α4β2, Rat) was 0; at human 5-HT3A receptor (5-HT3A, Human), 0; at rat α3β4 nAChR (α3β4, Rat), 0. In addition, on human 5-HT3A receptor (Br-IQ17B alone, 0.1–100 μmol/L), the “Agonist activity on 5-HT3A” value is listed as “did not show any agonist activities”. Moreover, the “Hill coefficient, inhibition of 5-HT3A” value on human 5-HT3A receptor (co-applied with 10 μmol/L 5-HT) is on record as 2.1±0.1. Moreover, the “Allosteric modulation of GABAA α3β3γ2” value in assay [3] (setting [13]) is “no allosteric modulation”. The “Effect on GABAA α3β3γ2” value in assay [3] (setting [14]) is recorded as “no observable effects”. Besides, the “Agonist activity on α3β4” value at rat α3β4 nAChR (setting [12]) was “did not induce any current; also recorded: no detectable agonist activity”. In addition, the “Hill coefficient, inhibition of α3β4” value on rat α3β4 nAChR (co-applied with 300 μmol/L ACh) turned out to be 0.9±0.1. For the same compound, the “Hill coefficient in the presence of PNU-120596” value on human α7 nAChR [4] (co-applied with 1 μmol/L PNU-120596) was determined as 2.4±0.1. In addition, the “Hill coefficient, activation of α7 current” value on human α7 nAChR [4] (compound alone) was 1.2±0.1. In addition, the “Concentration needed to reach 30% of the response of ACh” value at human α7 nAChR [4] is 1.5 µmol/L. Moreover, the “Maximal response vs 3 mmol/L ACh” value at human α7 nAChR [4] is given as 64.3%±3.6%. In assay [5] (setting [13]), the “Allosteric modulation of GABAA α1β3γ2” value was “no allosteric modulation”. In addition, the “Effect on GABAA α1β3γ2” value in assay [5] (setting [14]) is listed as “no observable effects”. The “Allosteric modulation of GABAA α5β3γ2” value in assay [6] (setting [13]) is listed as “no allosteric modulation”. Also, the “Effect on GABAA α5β3γ2” value in assay [6] (setting [14]) is recorded as “no observable effects”. In addition, the “Current evoked in hippocampal neurons” value in assay [1] was “evoked α7 currents with fast onset and rapid decay”. For the same compound, the “Effect of low concentration on ACh-mediated peak current” value on human α7 nAChR [7] (3 nmol/L Br-IQ17B, 100 μmol/L ACh) is given as “increased the ACh-mediated peak current”. The “Hill coefficient, inhibition of ACh-evoked α7 current” value on human α7 nAChR [7] (1-min sustained exposure, then 100 μmol/L ACh) came to 2.8±0.3. For the same compound, the “Allosteric modulation of GABAA α2β3γ2” value in [8] (setting [13]) is recorded as “no allosteric modulation”. Further, the “Effect on GABAA α2β3γ2” value in assay [8] (setting [14]) is “no observable effects”. Also, the “Fold more potent than ACh in [3H]-MLA displacement” value on α7 nAChR [9] is listed as “approximately 300 fold”. In addition, the “sIPSC frequency with co-application of PNU-120596 and Br-IQ17B” value in [10] (Br-IQ17B 10 μmol/L + PNU-120596 1 μmol/L, 1–5 min, from 4.6±0.7 Hz) came to 7.8±0.7 Hz. The “Increase of IPSC peak amplitudes of individual neurons” value in [10] (Br-IQ17B 10 μmol/L + PNU-120596 1 μmol/L, 5 out of 6 neurons, vs control or PNU120596 alone) is 1.3 to 4.9 times. The “IPSC amplitude in the one neuron out of six without amplitude change” value in assay [10] (co-application of Br-IQ17B and PNU-120596, vs 25.3±1.4 pA) was found to be 25.9±1.2 pA.

`O=C(N[C@H]1CN2CCC1CC2)c1cc2cccc(Cl)c2s1` [EVP-6124]: on human α7 nAChR [4], the EC50 was found to be 0.45 ± 0.08 µM, the “Concentration needed to reach 30% of the response of ACh” value was found to be 3 µmol/L and the “Maximal response vs 3 mmol/L ACh” value is listed as 30.6%±1.8%.

Regarding `CCN1C[C@]2(COC(=O)c3ccccc3N3C(=O)C[C@H](C)C3=O)CC[C@H](OC)[C@@]34[C@@H]5C[C@H]6[C@H](OC)[C@@H]5[C@](O)(C[C@@H]6OC)[C@@](O)([C@@H](OC)[C@H]23)[C@@H]14` [MLA, methyllycaconitine], the “Effect of MLA on α7 current evoked by Br-IQ17B” value on human α7 nAChR [4] (10 nmol/L MLA, 30 μmol/L Br-IQ17B) is recorded as “inhibited; also recorded: completely blocked”. Moreover, in assay [1], the “Effect of MLA on Br-IQ17B-evoked native α7 current” value is on record as “completely blocked”.

For `COc1cc(OC)c(NC(=O)Nc2cc(C)on2)cc1Cl` [PNU-120596], the “Effect of PNU-120596 alone on basal pERK/tERK ratio” value in assay [11] is given as “slight increase”. The “Effect of PNU-120596 on current activated by Br-IQ17B” value in assay [1] was “significantly enhanced”. Also, the “Effect of PNU-120596 on current evoked by low concentration of ACh” value in assay [1] (PNU-120596 1 μmol/L, ACh 10 μmol/L) is reported as “robustly increased”. Besides, the “sIPSC frequency with PNU-120596 alone” value in assay [10] (PNU-120596 1 μmol/L, 10 min, baseline 4.5±0.7 Hz) is recorded as 4.6±0.7 Hz. The “sIPSC amplitude with PNU-120596 alone” value in [10] (PNU-120596 1 μmol/L, 10 min, baseline 30.8±6.8 pA) is listed as 30.6±4.7 pA.

What is called Ki is the equilibrium dissociation constant of an inhibitor or competing ligand from its target. High values mean weaker binding, low ones tighter binding. One may read the EC50 as the concentration that produces a half-maximal response. Low readings indicate an effect from little substance, high ones a need for much substance. The term IC50 denotes the point on the concentration scale where inhibition reaches its midpoint.

The values above are taken from paper PMC4648113 (Acta Pharmacologica Sinica, 2015).
